According to patent US9089578B2, “Method of treating neuroendocrine tumors” (Niiki Pharma Acquisition Corp. 2, priority 2010, dated 2015):

What was measured:
[1] = test system: Stage IV Carcinoid tumor of the small bowel; assay: Prior chemo regimens of the carcinoid patient (history); type: in vivo, human; details: December 2009 to March 2010
Description: (§1) In a human clinical trial conducted in the US, a person with Stage IV Carcinoid tumor of the small bowel (a neuroectodermal tumor or NET) was selected to undergo treatment of sodium trans-[tetrachlorobis(1H-indazole)ruthenate(III)]. They previously had 2 surgeries: an exploratory lap (diagnosis of neuroendocrine tumor) in June 2008, and a partial surgical resection of mass in October 2008. The second surgery was followed by chemoembolization of residual tumor masses for palliative treatment in October 2008 and in November 2008. Systemic chemotherapy with capecitibine was administered between July and August 2009. In August 2009, therapy was changed to octreotide (Sandostatin LAR), but this was discontinued in November 2009.

[2] = test system: human thyroid carcinoma cell line MB1; assay: ATCC MTT Cell Proliferation Assay, MB1; type: cell-based; details: MB1 cells, 72 hours post-treatment, read-out: IC50 (concentration that inhibits cell growth by 50%)
Protocol: (§2) To test the activities of sodium trans-[tetrachlorobis(1H-indazole)ruthenate(III)], ATCC's MTT Cell Proliferation Assay® was performed using human thyroid carcinoma cell line MB1 and Merkel cell carcinoma cell line MKL-1, both being neuroendocrine tumor (NET) cell lines. Stock cultures were allowed to grow to 70-80% confluence for this study. The anti-proliferative activity of sodium trans-[tetrachlorobis(1H-indazole)ruthenate(III)], against the indicated cell line was evaluated in vitro using the ATCC's MTT Cell Proliferation Assay (Catalog No. 30-1010K). […] The plates were left overnight at room temperature in the dark and was read on a plate reader using SoftMax® Pro (version 5.2, Molecular Devices).
(§3) The absorbance data was analyzed as follows: Absorbance values were converted to Percent of Control and plotted against test agent concentrations for IC50 calculations using SoftMax® Pro (version 5.2, Molecular Devices). […] Percent of Control values were calculated by dividing the absorbance values for each test well by the No Drug Control average (column 11 values; cells+vehicle control) and multiplying by 100. Plots of Compound Concentration versus Percent of Control were analyzed using the 4-parameter equation to obtain IC50 values and other parameters that describe the sigmoidal dose response curve. […]

serum gastrin = assay: Serum gastrin level by chemiluminescence method in gastrinoma patient; type: in vivo, human; details: reduced from 8291
Description: (§4) In the same human clinical trial described above, a person with Stage IV gastrinoma of the stomach, (a neuroectodermal tumor or NET) diagnosed in December 2006 was enrolled. They had multiple attempts to achieve disease control with hepatic artery embolization in […], in January 2007, and in September 2007. Localized radiotherapy with Yttrium-90 instillation to the right lobe of the liver in March 2009 and the left lobe in May 2009 was attempted. Yet the tumor was not controlled.
Serum gastrin levels were measured using chemiluminescence method during the treatment period.

[3] = test system: Merkel cell carcinoma cell line MKL-1; assay: ATCC MTT Cell Proliferation Assay, MKL-1; type: cell-based, human; details: MKL-1 cells, 72 hours post-treatment, read-out: IC50 (concentration that inhibits cell growth by 50%)
Protocol: as §2, §3

[4] = test system: Stage IV gastrinoma of the stomach; assay: Human clinical trial, gastrinoma patient, tumor response; type: in vivo; details: 420 mg/m^2 i.v. days 1, 8, 15 of 28-day cycle, 6 cycles
Description: as §4

[5] = test system: Stage IV Carcinoid tumor of the small bowel; assay: Human clinical trial, carcinoid patient, tumor lesions by CT scan; type: in vivo; details: for Size of tumor lesion by CT scan, Left periaortic LN: baseline 2.5; for Size of tumor lesion by CT scan, Portacaval LN: baseline 3.0; for Size of tumor lesion by CT scan, Stomach/mesenteric LN: baseline 3.3; for Size of tumor lesion by CT scan, Esophageal LN: baseline 3.8
Description: as §1
As the tumors were progressing, the patient started therapy on May 7, 2010 with intravenous injection of sodium trans-[tetrachlorobis(1H-indazole)ruthenate(III)] at 320 mg/m^2 based on body surface area (for a total dose of 630 mg per administration) once per week, on days 1, 8, and 15 of each 28-day cycle. At that time the patient had four metastatic sites originating from the primary tumor small intestine carcinoid. The four metastatic sites were in portacaval lymph node, left periaortic lymph node, stomach/mesenteric lymph node, and esophageal lymph node. CT scan of the tumors was done at the start of the treatment (baseline), and thereafter every two months.

[6] = End of 2nd Cycle (Jun. 24, 2010), 320 mg/m^2 i.v.
[7] = End of 4th Cycle (Aug. 19, 2010), 320 mg/m^2 i.v.
[8] = carcinoid patient, 320 mg/m^2 i.v. once per week

| Structure (SMILES) | outcome of prior therapy [1] | IC50 [2] | serum gastrin level reduced during the course of therapy (serum gastrin) | IC50 [3] | best response [4] | Size of tumor lesion by CT scan, Left periaortic LN [5, 6] | Size of tumor lesion by CT scan, Portacaval LN ([5]; End of 2nd Cycle (Jun. 24, 2010), 320 mg/m^2 i.v. days 1, 8, 15 of 28-day cycle) | Size of tumor lesion by CT scan, Stomach/mesenteric LN [5, 6] | Size of tumor lesion by CT scan, Esophageal LN [5, 6] | Size of tumor lesion by CT scan, Left periaortic LN [5, 7] | Size of tumor lesion by CT scan, Portacaval LN [5, 7] | Size of tumor lesion by CT scan, Stomach/mesenteric LN [5, 7] | Size of tumor lesion by CT scan, Esophageal LN [5, 7] | disease status on treatment ([5]; after 14 cycles, as of July 2011) | effect on the remaining three lesions [5, 8] | tumor regression in one lesion [5, 8] | serious adverse events ([5]; carcinoid patient, 320 mg/m^2 i.v., 14 cycles) |
| --- | --- | --- | --- | --- | --- | --- | --- | --- | --- | --- | --- | --- | --- | --- | --- | --- | --- |
| C[C@@H](Oc1cc(-c2cnn(C3CCNCC3)c2)cnc1N)c1c(Cl)ccc(F)c1Cl [crizotinib] | disease progression |  |  |  |  |  |  |  |  |  |  |  |  |  |  |  |  |
| [Cl][Ru-]([Cl])([Cl])[Cl].[Na+].c1ccc2[nH]ncc2c1.c1ccc2[nH]ncc2c1 [sodium trans-[tetrachlorobis(1H-indazole)ruthenate(III)]] |  | 73.7 µM | 6120 | 40.4 µM | stable disease | 2.5 | 2.9 | 3.1 | 3.0 | 2.5 | 2.9 | 3.1 | 2.0 | remains under control | stopped tumor growth | ~50% | No serious adverse events have been observed |
